Experimental findings from patent publication US12037322B2, “AHR agonists” (Eli Lilly and Company, priority 2021, dated 2024) are described below.

In the assay the target is T1, hAHR (Homo sapiens, UniProt P35869).
T1 construct: expressed in transfected cells
T1 sequence (P35869 11-848): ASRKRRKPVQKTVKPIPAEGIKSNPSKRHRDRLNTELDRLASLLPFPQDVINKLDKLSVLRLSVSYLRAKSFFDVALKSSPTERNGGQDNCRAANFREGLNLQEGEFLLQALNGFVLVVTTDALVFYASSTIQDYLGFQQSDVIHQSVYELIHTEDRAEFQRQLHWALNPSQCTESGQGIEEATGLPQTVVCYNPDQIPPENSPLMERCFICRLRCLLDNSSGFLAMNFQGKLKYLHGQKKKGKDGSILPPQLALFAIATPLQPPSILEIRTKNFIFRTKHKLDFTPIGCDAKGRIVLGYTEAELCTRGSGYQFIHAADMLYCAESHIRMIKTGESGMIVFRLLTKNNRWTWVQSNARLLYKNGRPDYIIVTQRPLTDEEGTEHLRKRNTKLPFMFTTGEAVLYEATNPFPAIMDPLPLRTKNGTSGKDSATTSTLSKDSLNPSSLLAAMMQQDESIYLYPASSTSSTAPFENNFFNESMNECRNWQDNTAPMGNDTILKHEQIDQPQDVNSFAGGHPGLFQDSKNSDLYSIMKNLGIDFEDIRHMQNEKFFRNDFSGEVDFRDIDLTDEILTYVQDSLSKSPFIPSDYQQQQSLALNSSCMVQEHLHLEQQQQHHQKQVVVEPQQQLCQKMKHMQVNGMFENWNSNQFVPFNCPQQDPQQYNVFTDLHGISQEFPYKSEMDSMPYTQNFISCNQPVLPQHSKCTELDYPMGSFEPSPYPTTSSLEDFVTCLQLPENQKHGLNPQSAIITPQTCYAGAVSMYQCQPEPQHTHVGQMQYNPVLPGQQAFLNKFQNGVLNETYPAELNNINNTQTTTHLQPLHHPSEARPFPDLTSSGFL
Nature of the assay: hAHR nuclear translocation assay. The assay is classed as cell-based. As to conditions: Jump-In T-REx HEK293 cells expressing AhR-EGFP; 45 min incubation; ratio of EGFP intensity in nuclear over cytosol; 20-point curve. The procedure, abridged:
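HEK293 cells with doxycycline-induced AhR-EGFP fusion treated 45 min at 37° C with compound (20-point 1:2 series, 0.2% DMSO) in DMEM/0.1% BSA, then methanol-fixed. Nuclear-to-cytosolic EGFP ratio imaged by high-content microscopy and fitted to a 4-parameter logistic for agonist potency.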

Each structure is given as a SMILES string.

Turning to `Cn1c2c(c(O)c(C(=O)Nc3ccccn3)c1=O)CC(C)(C)C2` [Example 42, 4-Hydroxy-1,6,6-trimethyl-2-oxo-N-(2-pyridyl)-5,7-dihydrocyclopenta[b]pyridine-3-carboxamide], the concentration for a half-maximal effect (EC50) (commonly the concentration giving half of the maximal effect) was 9.41 nM.

Take `Cn1c2c(c(O)c(C(=O)Nc3ncc(F)cn3)c1=O)C(C)(C)CC2` [Example 43, N-(5-Fluoropyrimidin-2-yl)-4-hydroxy-1,5,5-trimethyl-2-oxo-6,7-dihydrocyclopenta[b]pyridine-3-carboxamide]: the EC50 came out at 0.973 nM.

`Cn1c2c(c(O)c(C(=O)Nc3ccc(F)cn3)c1=O)C(C)(C)CC2` [Example 44, N-(5-Fluoro-2-pyridyl)-4-hydroxy-1,5,5-trimethyl-2-oxo-6,7-dihydrocyclopenta[b]pyridine-3-carboxamide]: the EC50 is 2.38 nM.

On to `Cn1c2c(cc(C(=O)Nc3ccccn3)c1=O)CC(C)(C)C2` [Example 45, 1,6,6-Trimethyl-2-oxo-N-(2-pyridyl)-5,7-dihydrocyclopenta[b]pyridine-3-carboxamide], for which the EC50 amounted to 16.2 nM.

Turning to `Cn1c2c(cc(C(=O)Nc3ncccn3)c1=O)C(C)(C)CC2` [Example 46, 1,5,5-Trimethyl-2-oxo-N-pyrimidin-2-yl-6,7-dihydrocyclopenta[b]pyridine-3-carboxamide], the EC50 was 31.5 nM.

Take `Cn1c2c(cc(C(=O)Nc3ccccc3)c1=O)CC(C)(C)C2` [Example 47, 1,6,6-Trimethyl-2-oxo-N-phenyl-5,7-dihydrocyclopenta[b]pyridine-3-carboxamide]: the EC50 came out at 0.803 nM.

Turning to `Cn1c2c(cc(C(=O)Nc3ccc(F)cn3)c1=O)CC(C)(C)C2` [Example 48, N-(5-Fluoro-2-pyridyl)-1,6,6-trimethyl-2-oxo-5,7-dihydrocyclopenta[b]pyridine-3-carboxamide], the EC50 was determined as 11.3 nM.

As to `Cn1c2c(cc(C(=O)Nc3ccc(F)cn3)c1=O)CC(C)(C)CC2` [Example 49, N-(5-Fluoro-2-pyridyl)-1,6,6-trimethyl-2-oxo-7,8-dihydro-5H-quinoline-3-carboxamide], the EC50 was found to be 2.03 nM.

With `Cc1nc2ccc(NC(=O)c3cc4c(n(C)c3=O)CCC(C)(C)C4)cc2o1` [Example 50, 1,6,6-Trimethyl-N-(2-methyl-1,3-benzoxazol-6-yl)-2-oxo-7,8-dihydro-5H-quinoline-3-carboxamide], the EC50 was determined as 8.27 nM.

With `Cn1c2c(cc(C(=O)Nc3ccccc3)c1=O)COC(C)(C)C2` [Example 51, 1,7,7-Trimethyl-2-oxo-N-phenyl-5,8-dihydropyrano[4,3-b]pyridine-3-carboxamide], the EC50 was 4.35 nM.

Regarding `CC1CCc2cc(C(=O)Nc3ccccc3)c(=O)n(C)c21` (stereo not shown) [Example 52, 1,7-Dimethyl-2-oxo-N-phenyl-6,7-dihydro-5H-cyclopenta[b]pyridine-3-carboxamide], the EC50 stood at 6.4 nM.

Turning to `C[C@@H]1CCc2c1cc(C(=O)Nc1ccccc1)c(=O)n2C` [Example 66, (5R)-1,5-Dimethyl-2-oxo-N-phenyl-6,7-dihydro-5H-cyclopenta[b]pyridine-3-carboxamide], the EC50 amounted to 0.525 nM.

Take `C[C@H]1CCc2c1cc(C(=O)Nc1ccccc1)c(=O)n2C` [Example 67, (5S)-1,5-Dimethyl-2-oxo-N-phenyl-6,7-dihydro-5H-cyclopenta[b]pyridine-3-carboxamide]: the EC50 stood at 0.5 nM.

Regarding `C[C@@H]1CCc2c1cc(C(=O)Nc1ncco1)c(=O)n2C` [Example 74, (5R)-1,5-Dimethyl-N-oxazol-2-yl-2-oxo-6,7-dihydro-5H-cyclopenta[b]pyridine-3-carboxamide], the EC50 was found to be 19 nM.

For `C[C@H]1CCc2c1cc(C(=O)Nc1ncco1)c(=O)n2C` [Example 75, (5S)-1,5-Dimethyl-N-oxazol-2-yl-2-oxo-6,7-dihydro-5H-cyclopenta[b]pyridine-3-carboxamide], the EC50 amounted to 17.7 nM.

Turning to `CC1Cc2cc(C(=O)Nc3ncccn3)c(=O)n(C)c2C1` (stereo not shown) [Example 79, 1,6-Dimethyl-2-oxo-N-pyrimidin-2-yl-6,7-dihydro-5H-cyclopenta[b]pyridine-3-carboxamide], the EC50 is 20.3 nM.
